Reference: patent publication US12522602B2, “Derivatives having 2,3-dihydro-1H-indene or 2,3-dihydrobenzofuran moiety or pharmaceutically acceptable salt thereof and pharmaceutical compositions comprising the same” (YUHAN CORPORATION, priority 2019, dated 2026)
pIC50: −log10 of the molar value.

The molecules below were run on GM1 production in Jurkat cells (assay: cells). Conditions: Homo sapiens, Jurkat, 72 h.
Format: cell-based

Going from `COCOc1cccc(-c2ccc3c(c2)CC(C)(C)C3NC(=O)O[C@@H]2CN3CCC2CC3)c1` (stereo partly drawn) [Example 101, (S)-quinuclidin-3-yl (5-(3-(methoxymethoxy)phenyl)-2,2-dimethyl-2,3-dihydro-1H-inden-1-yl)carbamate] to `CCOc1cccc(-c2ccc3c(c2)CC(C)(C)C3NC(=O)O[C@@H]2CN3CCC2CC3)c1` (stereo partly drawn) [Example 104, (S)-quinuclidin-3-yl (5-(3-ethoxyphenyl)-2,2-dimethyl-2,3-dihydro-1H-inden-1-yl)carbamate], the pIC50 falls from 8.06 to 7.77 (0.29 log units). The first is the more potent here.

`COCOc1ccccc1-c1ccc2c(c1)CC(C)(C)C2NC(=O)O[C@@H]1CN2CCC1CC2` (stereo partly drawn) [Example 102, (S)-quinuclidin-3-yl (5-(2-(methoxymethoxy)phenyl)-2,2-dimethyl-2,3-dihydro-1H-inden-1-yl)carbamate] and `COc1cccc(-c2ccc3c(c2)CC(C)(C)C3NC(=O)O[C@@H]2CN3CCC2CC3)c1Cl` (stereo partly drawn) [Example 124, (S)-quinuclidin-3-yl (5-(2-chloro-3-methoxyphenyl)-2,2-dimethyl-2,3-dihydro-1H-inden-1-yl)carbamate] are within 0.2 log units of each other in pIC50: 7.76 for the first, 7.65 for the second.

`COc1cccc(-c2ccc3c(c2)CC(C)(C)C3NC(=O)O[C@@H]2CN3CCC2CC3)c1` (stereo partly drawn) [Example 103, (S)-quinuclidin-3-yl (5-(3-methoxyphenyl)-2,2-dimethyl-2,3-dihydro-1H-inden-1-yl)carbamate] and `CC(C)Oc1cccc(-c2ccc3c(c2)CC(C)(C)C3NC(=O)O[C@@H]2CN3CCC2CC3)c1` (stereo partly drawn) [Example 105, (S)-quinuclidin-3-yl (5-(3-isopropoxyphenyl)-2,2-dimethyl-2,3-dihydro-1H-inden-1-yl)carbamate] are within 0.2 log units of each other in pIC50: 7.71 for the first, 7.82 for the second.

Going from `CN(C)c1cccc(-c2ccc3c(c2)CC(C)(C)C3NC(=O)O[C@@H]2CN3CCC2CC3)c1` (stereo partly drawn) [Example 106, (S)-quinuclidin-3-yl (5-(3-(dimethylamino)phenyl)-2,2-dimethyl-2,3-dihydro-1H-inden-1-yl)carbamate] to `CN(C)c1ccc(-c2ccc3c(c2)CC(C)(C)C3NC(=O)O[C@@H]2CN3CCC2CC3)cc1` (stereo partly drawn) [Example 132, (S)-quinuclidin-3-yl (5-(4-(dimethylamino)phenyl)-2,2-dimethyl-2,3-dihydro-1H-inden-1-yl)carbamate], the pIC50 falls from 8.24 to 7.53 (0.71 log units). The first is the more potent here.

`CSc1cccc(-c2ccc3c(c2)CC(C)(C)C3NC(=O)O[C@@H]2CN3CCC2CC3)c1` (stereo partly drawn) [Example 107, (S)-quinuclidin-3-yl (2,2-dimethyl-5-(3-(methylthio)phenyl)-2,3-dihydro-1H-inden-1-yl)carbamate] and `CCc1cccc(-c2ccc3c(c2)CC(C)(C)C3NC(=O)O[C@@H]2CN3CCC2CC3)c1` (stereo partly drawn) [Example 108, (S)-quinuclidin-3-yl (5-(3-ethylphenyl)-2,2-dimethyl-2,3-dihydro-1H-inden-1-yl)carbamate] are within 0.2 log units of each other in pIC50: 8.20 for the first, 8.12 for the second.

Compared with `CC(C)c1cccc(-c2ccc3c(c2)CC(C)(C)C3NC(=O)O[C@@H]2CN3CCC2CC3)c1` (stereo partly drawn) [Example 109, (S)-quinuclidin-3-yl (5-(3-isopropylphenyl)-2,2-dimethyl-2,3-dihydro-1H-inden-1-yl)carbamate], `CC(C)(C)c1cccc(-c2ccc3c(c2)CC(C)(C)C3NC(=O)O[C@@H]2CN3CCC2CC3)c1` (stereo partly drawn) [Example 110, (S)-quinuclidin-3-yl (5-(3-(tert-butyl)phenyl)-2,2-dimethyl-2,3-dihydro-1H-inden-1-yl)carbamate] is 0.29 log units lower in pIC50: 8.11 for the first, 7.82 for the second.

`CC1(C)Cc2cc(-c3ccc4c(c3)OC(F)(F)O4)ccc2C1NC(=O)O[C@@H]1CN2CCC1CC2` (stereo partly drawn) [Example 111, (S)-quinuclidin-3-yl (5-(2,2-difluorobenzo[d][1,3]dioxol-5-yl)-2,2-dimethyl-2,3-dihydro-1H-inden-1-yl)carbamate] and `CC1(C)Cc2cc(-c3ccc4c(c3)OCCO4)ccc2C1NC(=O)O[C@@H]1CN2CCC1CC2` (stereo partly drawn) [Example 112, (S)-quinuclidin-3-yl (5-(2,3-dihydrobenzo[b][1,4]dioxin-6-yl)-2,2-dimethyl-2,3-dihydro-1H-inden-1-yl)carbamate] are within 0.2 log units of each other in pIC50: 7.49 for the first, 7.45 for the second.

First: CC1(C)Cc2cc(-c3ccc4c(c3)CCO4)ccc2C1NC(=O)O[C@@H]1CN2CCC1CC2 (stereo partly drawn) [Example 113, (S)-quinuclidin-3-yl (5-(2,3-dihydrobenzofuran-5-yl)-2,2-dimethyl-2,3-dihydro-1H-inden-1-yl)carbamate]
Second: CC1(C)Cc2cc(-c3ccc4c(c3)CCCO4)ccc2C1NC(=O)O[C@@H]1CN2CCC1CC2 (stereo partly drawn) [Example 130, (S)-quinuclidin-3-yl (5-(chroman-6-yl)-2,2-dimethyl-2,3-dihydro-1H-inden-1-yl)carbamate]
The pIC50 of the first is 0.74 log units lower: 7.26 for the first, 8.00 for the second.

`CC1(C)Cc2cc(-c3cccc(OCCN4CCOCC4)c3)ccc2C1NC(=O)O[C@@H]1CN2CCC1CC2` (stereo partly drawn) [Example 114, (S)-quinuclidin-3-yl (2,2-dimethyl-5-(3-(2-morpholinoethoxy)phenyl)-2,3-dihydro-1H-inden-1-yl)carbamate] and `CC1(C)Cc2cc(-c3ccc(OCCN4CCOCC4)cc3)ccc2C1NC(=O)O[C@@H]1CN2CCC1CC2` (stereo partly drawn) [Example 117, (S)-quinuclidin-3-yl (2,2-dimethyl-5-(4-(2-morpholinoethoxy)phenyl)-2,3-dihydro-1H-inden-1-yl)carbamate] are within 0.2 log units of each other in pIC50: 7.47 for the first, 7.38 for the second.

Compared with `CC1(C)Cc2cc(-c3ccc(OCCF)cc3)ccc2C1NC(=O)O[C@@H]1CN2CCC1CC2` (stereo partly drawn) [Example 115, (S)-quinuclidin-3-yl (5-(4-(2-fluoroethoxy)phenyl)-2,2-dimethyl-2,3-dihydro-1H-inden-1-yl)carbamate], `CCCOc1ccc(-c2ccc3c(c2)CC(C)(C)C3NC(=O)O[C@@H]2CN3CCC2CC3)cc1` (stereo partly drawn) [Example 135, (S)-quinuclidin-3-yl (2,2-dimethyl-5-(4-propoxyphenyl)-2,3-dihydro-1H-inden-1-yl)carbamate] is 0.67 log units higher in pIC50: 7.42 for the first, 8.09 for the second. The second is the more potent here.

Going from `CC1(C)Cc2cc(-c3ccc(OCC(F)(F)F)cc3)ccc2C1NC(=O)O[C@@H]1CN2CCC1CC2` (stereo partly drawn) [Example 116, (S)-quinuclidin-3-yl (2,2-dimethyl-5-(4-(2,2,2-trifluoroethoxy)phenyl)-2,3-dihydro-1H-inden-1-yl)carbamate] to `CC1(C)Cc2cc(-c3ccnc(C(F)(F)F)c3)ccc2C1NC(=O)O[C@@H]1CN2CCC1CC2` (stereo partly drawn) [Example 118, (S)-quinuclidin-3-yl (2,2-dimethyl-5-(2-(trifluoromethyl)pyridin-4-yl)-2,3-dihydro-1H-inden-1-yl)carbamate], the pIC50 falls from 7.78 to 7.42 (0.36 log units). The first is the more potent here.

First: CC1(C)Cc2cc(-c3cc(Cl)ncc3Cl)ccc2C1NC(=O)O[C@@H]1CN2CCC1CC2 (stereo partly drawn) [Example 119, (S)-quinuclidin-3-yl (5-(2,5-dichloropyridin-4-yl)-2,2-dimethyl-2,3-dihydro-1H-inden-1-yl)carbamate]
Second: COc1ccc(Cl)c(-c2ccc3c(c2)CC(C)(C)C3NC(=O)O[C@@H]2CN3CCC2CC3)c1 (stereo partly drawn) [Example 121, (S)-quinuclidin-3-yl (5-(2-chloro-5-methoxyphenyl)-2,2-dimethyl-2,3-dihydro-1H-inden-1-yl)carbamate]
The pIC50 of the first is 0.91 log units lower: 7.42 for the first, 8.33 for the second.

`CN1CCOc2cc(-c3ccc4c(c3)CC(C)(C)C4NC(=O)O[C@@H]3CN4CCC3CC4)ccc21` (stereo partly drawn) [Example 120, (S)-quinuclidin-3-yl (2,2-dimethyl-5-(4-methyl-3,4-dihydro-2H-benzo[b][1,4]oxazin-7-yl)-2,3-dihydro-1H-inden-1-yl)carbamate] and `CN(C)c1cc(-c2ccc3c(c2)CC(C)(C)C3NC(=O)O[C@@H]2CN3CCC2CC3)ccc1F` (stereo partly drawn) [Example 129, (S)-quinuclidin-3-yl (5-(3-(dimethylamino)-4-fluorophenyl)-2,2-dimethyl-2,3-dihydro-1H-inden-1-yl)carbamate] are within 0.2 log units of each other in pIC50: 7.55 for the first, 7.43 for the second.

First: COc1ccc(-c2ccc3c(c2)CC(C)(C)C3NC(=O)O[C@@H]2CN3CCC2CC3)cc1Cl (stereo partly drawn) [Example 122, (S)-quinuclidin-3-yl (5-(3-chloro-4-methoxyphenyl)-2,2-dimethyl-2,3-dihydro-1H-inden-1-yl)carbamate]
Second: COc1cc(-c2ccc3c(c2)CC(C)(C)C3NC(=O)O[C@@H]2CN3CCC2CC3)ccc1Cl (stereo partly drawn) [Example 125, (S)-quinuclidin-3-yl (5-(4-chloro-3-methoxyphenyl)-2,2-dimethyl-2,3-dihydro-1H-inden-1-yl)carbamate]
The pIC50 of the first is 0.73 log units lower: 7.29 for the first, 8.02 for the second.

Compared with `COc1ccc(-c2ccc3c(c2)CC(C)(C)C3NC(=O)O[C@@H]2CN3CCC2CC3)c(Cl)c1` (stereo partly drawn) [Example 123, (S)-quinuclidin-3-yl (5-(2-chloro-4-methoxyphenyl)-2,2-dimethyl-2,3-dihydro-1H-inden-1-yl)carbamate], `COc1ccc(-c2ccc3c(c2)CC(C)(C)C3NC(=O)O[C@@H]2CN3CCC2CC3)c(F)c1` (stereo partly drawn) [Example 128, (S)-quinuclidin-3-yl (5-(2-fluoro-4-methoxyphenyl)-2,2-dimethyl-2,3-dihydro-1H-inden-1-yl)carbamate] is 0.29 log units lower in pIC50: 8.03 for the first, 7.74 for the second. The first is the more potent here.

`COc1ccc(-c2ccc3c(c2)CC(C)(C)C3NC(=O)O[C@@H]2CN3CCC2CC3)c(Cl)c1Cl` (stereo partly drawn) [Example 126, (S)-quinuclidin-3-yl (5-(2,3-dichloro-4-methoxyphenyl)-2,2-dimethyl-2,3-dihydro-1H-inden-1-yl)carbamate] and `COc1ccc(-c2ccc3c(c2)CC(C)(C)C3NC(=O)O[C@@H]2CN3CCC2CC3)cc1C(F)(F)F` (stereo partly drawn) [Example 134, (S)-quinuclidin-3-yl (5-(4-methoxy-3-(trifluoromethyl)phenyl)-2,2-dimethyl-2,3-dihydro-1H-inden-1-yl)carbamate] are within 0.2 log units of each other in pIC50: 7.30 for the first, 7.36 for the second.

`CC(C)Oc1ccc(-c2ccc3c(c2)CC(C)(C)C3NC(=O)O[C@@H]2CN3CCC2CC3)cc1Cl` (stereo partly drawn) [Example 127, (S)-quinuclidin-3-yl (5-(3-chloro-4-isopropoxyphenyl)-2,2-dimethyl-2,3-dihydro-1H-inden-1-yl)carbamate] and `CCOc1ccc(-c2ccc3c(c2)CC(C)(C)C3NC(=O)O[C@@H]2CN3CCC2CC3)cc1F` (stereo partly drawn) [Example 133, (S)-quinuclidin-3-yl (5-(4-ethoxy-3-fluorophenyl)-2,2-dimethyl-2,3-dihydro-1H-inden-1-yl)carbamate] are within 0.2 log units of each other in pIC50: 7.74 for the first, 7.65 for the second.

Molecule `CC1(C)Cc2cc(-c3ccc(C4CC4)cc3)ccc2C1NC(=O)O[C@@H]1CN2CCC1CC2` (stereo partly drawn) [Example 131, (S)-quinuclidin-3-yl (5-(4-cyclopropylphenyl)-2,2-dimethyl-2,3-dihydro-1H-inden-1-yl)carbamate] has a pIC50 of 7.97.
